The NIST ThermoML archive (doi:10.1016/j.jct.2016.08.026)
Numbers after ± are expanded uncertainties.

Tests used:
[1] = 101 kPa, Liquid, Pycnometric method
[2] = xn = mol fraction of the nth substance listed; details: 101 kPa, Liquid, Pycnometric method, x1 = 1

SMILES	mass density ([1]; 293.15 K)	mass density ([1]; 298.15 K)	mass density ([1]; 303.15 K)	mass density ([1]; 308.15 K)	mass density ([1]; 313.15 K)	mass density ([1]; 318.15 K)	mass density ([2]; 293.15 K)	mass density ([2]; 298.15 K)	mass density ([2]; 303.15 K)	mass density ([2]; 308.15 K)	mass density ([2]; 313.15 K)	mass density ([2]; 318.15 K)
CC#N [acetonitrile]	782.12 ± 1 kg/m3	776.82 ± 1 kg/m3	771.52 ± 1 kg/m3	766.21 ± 1 kg/m3	760.9 ± 1 kg/m3	755.59 ± 1 kg/m3	–	–	–	–	–	–
CC#N [acetonitrile] + C=CC(=O)OC	–	–	–	–	–	–	782.12 ± 1 kg/m3	776.82 ± 1 kg/m3	771.52 ± 1 kg/m3	766.21 ± 1 kg/m3	760.9 ± 1 kg/m3	755.59 ± 1 kg/m3
CC#N [acetonitrile] + C=CC(=O)OC(C)(C)C	–	–	–	–	–	–	782.12 ± 1 kg/m3	776.82 ± 1 kg/m3	771.52 ± 1 kg/m3	766.21 ± 1 kg/m3	760.9 ± 1 kg/m3	755.59 ± 1 kg/m3
CC#N [acetonitrile] + C=CC(=O)OCC	–	–	–	–	–	–	782.12 ± 1 kg/m3	776.82 ± 1 kg/m3	771.52 ± 1 kg/m3	766.21 ± 1 kg/m3	760.9 ± 1 kg/m3	755.59 ± 1 kg/m3
CC#N [acetonitrile] + C=CC(=O)OCCCC	–	–	–	–	–	–	782.12 ± 1 kg/m3	776.82 ± 1 kg/m3	771.52 ± 1 kg/m3	766.21 ± 1 kg/m3	760.9 ± 1 kg/m3	755.59 ± 1 kg/m3
C=CC(=O)OC(C)(C)C [tert-butyl acrylate]	884.13 ± 1 kg/m3	879.66 ± 1 kg/m3	875.2 ± 1 kg/m3	870.74 ± 1 kg/m3	866.28 ± 1 kg/m3	861.82 ± 1 kg/m3	–	–	–	–	–	–
